Assay results from publication PMC10739838, “Limited high-throughput screening compatibility of the phenuivirus cap-binding domain” (Scientific Reports, 2023).
Several values for one entry are separate records, joined by “and”; a condition that tells them apart may be missing. Identical values can stand only once. Like-named read-outs stand apart in the source and are kept apart here.

Assays:
SFTSV CBD [1] = molecular target: T1, SFTSV CBD (Dabie bandavirus, UniProt I0DF35); format: binding
SFTSV CBD [2] = molecular target: T1, SFTSV CBD; format: binding; remark: listed apart in the source
human eIF4E = human eIF4E (Homo sapiens, UniProt P06730); format: binding
human eIF4E, sequence (P06730 whole entry): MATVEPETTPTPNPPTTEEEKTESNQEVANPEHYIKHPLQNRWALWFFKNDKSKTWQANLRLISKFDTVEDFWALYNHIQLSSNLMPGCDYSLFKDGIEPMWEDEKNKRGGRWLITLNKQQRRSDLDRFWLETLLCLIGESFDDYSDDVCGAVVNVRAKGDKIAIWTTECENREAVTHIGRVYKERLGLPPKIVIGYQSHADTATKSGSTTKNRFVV

SFTSV CBD [3] = molecular target: T1, SFTSV CBD; format: binding; remark: listed apart in the source
SFTSV CBD [4] = molecular target: T1, SFTSV CBD; settings: cited from earlier work
RVFV CBD [5] = molecular target: T2, RVFV CBD (Rift valley fever virus, UniProt P27316); settings: cited from earlier work
T2 sequence (P27316 1706-1822 limits assumed): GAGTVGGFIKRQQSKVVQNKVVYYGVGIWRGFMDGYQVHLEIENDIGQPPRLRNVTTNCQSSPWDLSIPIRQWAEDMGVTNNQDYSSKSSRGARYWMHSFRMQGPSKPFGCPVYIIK

PB2 CBD = PB2 CBD (Influenza A virus, UniProt P31345)
PB2 CBD, sequence (P31345 318-483 limits assumed): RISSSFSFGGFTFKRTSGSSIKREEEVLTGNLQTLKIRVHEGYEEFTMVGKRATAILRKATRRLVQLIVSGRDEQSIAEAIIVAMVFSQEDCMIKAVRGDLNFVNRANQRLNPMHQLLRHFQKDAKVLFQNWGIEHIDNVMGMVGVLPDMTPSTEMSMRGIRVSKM

SFTSV CBD [6] = molecular target: T1, SFTSV CBD; settings: cited from earlier work; remark: listed apart in the source
SFTSV CBD [7] = molecular target: T1, SFTSV CBD; format: binding; remark: listed apart in the source
RVFV CBD [8] = molecular target: T2, RVFV CBD; format: binding

T1 sequence (I0DF35 1695-1810 limits assumed): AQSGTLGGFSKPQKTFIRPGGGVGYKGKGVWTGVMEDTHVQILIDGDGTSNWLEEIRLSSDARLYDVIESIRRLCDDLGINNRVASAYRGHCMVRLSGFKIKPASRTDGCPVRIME

Row | SMILES | Kd (SFTSV CBD [1]) | Kd (SFTSV CBD [2]) | Effect on thermal stability of the protein (SFTSV CBD [4]) | Effect on thermal stability of the protein (RVFV CBD [5]) | further results
1 | Nc1ncnc2c1ncn2[C@@H]1O[C@H](COP(=O)(O)OP(=O)(O)OP(=O)(O)O)[C@@H](O)[C@H]1O [ATP] | 20000 µM | – | – | – | –
2 | CC[N+]1=C(/C=C/C=C/C=C2/N(CCCCCC(=O)NCCNC(=O)O[C@@H]3[C@H](O)[C@@H](COP(=O)(O)OP(=O)(O)OP(=O)([O-])O)O[C@H]3n3c[n+](C)c4c(=O)[nH]c(N)nc43)c3ccc(S(=O)(=O)O)cc3C2(C)C)C(C)(C)c2cc(S(=O)(=O)[O-])ccc21 [EDA-m^7GTP-Cy5] | – | 55 µM and 32 µM and 36 µM | – | – | Kd (human eIF4E): 0.036 µM and 0.033 µM and 0.028 µM
3 | Nc1nc2c(ncn2[C@@H]2O[C@H](COP(=O)(O)OP(=O)(O)OP(=O)(O)O)[C@@H](O)[C@H]2O)c(=O)[nH]1 [GTP] | 20000 µM | – | not | not | SPR signal on injection of increasing concentrations (SFTSV CBD [3]): did not result in a dose-dependent signal increase
4 | CC[N+]1=C(/C=C/C=C/C=C2/N(CCCCCC(=O)NCCOCCOCCOCCOCCC(=O)Nc3ccc(OP(=O)([O-])OP(=O)(O)OP(=O)(O)OC[C@H]4O[C@@H](n5c[n+](C)c6c(=O)[nH]c(N)nc65)[C@H](O)[C@@H]4O)cc3)c3ccc(S(=O)(=O)O)cc3C2(C)C)C(C)(C)c2cc(S(=O)(=O)[O-])ccc21 [m^7GTP-γ-aminophenyl-PEG4-Cy5] | – | 106 µM | – | – | –
5 | Cn1c[n+]([C@@H]2O[C@H](COP(=O)([O-])OP(=O)(O)OP(=O)(O)O)[C@@H](O)[C@H]2O)c2nc(N)[nH]c(=O)c21 [m^7GTP] | ~6000 µM and 6100 µM and 10700 µM | – | higher thermal stability | higher thermal stability | Kd (SFTSV CBD [3]): ~1000 µM; Kd (PB2 CBD): 2.8 µM; Kd (SFTSV CBD [6]): 138 µM
6 | O=C(O)[C@H]1C2CCC(CC2)[C@@H]1Nc1nc(-c2c[nH]c3ncc(F)cc23)ncc1F [pimodivir] | – | – | – | – | Effect on thermal stability of the protein (SFTSV CBD [7]): destabilization of the protein; Effect on thermal stability of the protein (RVFV CBD [8]): destabilization of the protein
